“Also recorded” adds a separate entry of the source. Like-named read-outs stand apart in the source and are kept apart here.
Experiments:
[1] = test system: B-RAF wildtype (HMCB) and B-RAF mutant (G361) cell lines; assay: Colony formation of melanoma cell lines; type: cell-based; settings: for colony formation: HMCB and G361
Source text: (§1) See, FIG. 25A and FIG. 25B.

SKMEL119 melanoma cells = assay: Invasion into collagen matrix; type: cell-based
[2] = mouse, in vivo
[3] = Dose-finding and tolerability in mice, drug in chow; type: in vivo; settings: for MTD: mouse, in vivo
Procedure: […]. AZD6244 is a MEK inhibitor that was administered in mouse chow at a predicted dose of 37 mg/kg (MTD). UNC2025 was administered in chow at a predicted dose of 120 mg/kg (MTD). […]. AZD6244 is a MEK inhibitor that was dosed in mouse chow at a predicted dose of 37 mg/kg (MTD). UNC2025 was dosed in chow at a predicted dose of 120 mg/kg (MTD).
. Once daily, oral dosing inhibits the growth of Mer-expressing leukemia and NSCLC xenografts. […]. After dose-finding studies in wild-type mice established an MTD, the inhibitor was given at 120 mpk/d in mouse chow. […]. The overall response was 10% (partial responses and stable disease). There were no complete responses. […]. […] See, FIG. 16A and FIG. 16B.

[4] = test system: FLT3-ITD-positive (Molm-13 and MV4; 11) AML cell lines; assay: Apoptosis of FLT3-ITD AML cell lines by flow cytometry; type: cell-based; settings: vehicle 10±2%, p<0.001
Source text: (§2) FLT-3 and MER tyrosine kinases have been previously identified as potential targets in the treatment of acute myeloid leukemia (AML). Expression of FLT-3 internal tandem duplication (ITD) occurs in ˜30-40% of AML patient samples and MER overexpression has been detected in ˜80-100%. In this example, a novel first-in-class small molecule inhibitor that has potent activity against both of these kinases and mediates growth inhibition or apoptosis of cell lines and patient myeloblasts is disclosed. […] See, FIGS. 4A-F.

[5] = test system: MER-positive (Kasumi-1 and U937) AML cell lines; assay: Soft agar colony formation of MER-positive AML cell lines; type: cell-based; settings: vehicle = 100, p<0.01
Source text: as §2

AKT and STAT6 activation = AKT and STAT6 activation in AML cell lines; type: cell-based; settings: short term exposure; cell lines expressing FLT3-ITD or MER
Source text: as §2

[6] = test system: primary AML patient samples (MER and/or FLT3-ITD positive); assay: Primary AML patient samples: phosphorylation, apoptosis, colony formation in methylcellulose; type: cell-based, human
Source text: as §2

[7] = test system: MER-positive (Kasumi-1 and U937) AML cell lines; assay: Apoptosis of MER-positive AML cell lines by flow cytometry; type: cell-based; settings: vehicle 20±10%, p<0.01
Source text: as §2

[8] = test system: ERK, AKT, and STAT6 signaling downstream of MER; settings: immunoblot
Procedure: Downstream signaling was evaluated by immunoblotting, and induction of apoptosis was determined by flow cytometry in cells stained with YO-PRO®-1 iodide and propidium iodide.

Colo699 cells = assay: Subcutaneous murine xenograft model of NSCLC; type: in vivo
Procedure: FIG. 18A is a graph illustrating tumor volume verses days treated. Colo699 tumor cells were subcutaneously implanted in mice.
(§3) The effects of Mer TKI treatment on activation of Mer and related members of the TAM-family of kinases, Axl and Tyro3, and effects on downstream proliferative and pro-survival signaling pathways were analyzed by immunoblot. In addition, Mer TKI-mediated anti-tumor activity was determined in a panel of NSCLC cell lines using soft-agar and clonogenic assays. Cells were stained with YoPro-1-iodide and propidium iodide dyes and induction of apoptosis was determined using flow cytometry. Finally, a subcutaneous murine xenograft model was employed to determine therapeutic effects in vivo.

[9] = test system: RAS-driven, INK4a/Arf null melanoma GEMM (TRIA); assay: RAS-driven, INK4a/Arf null melanoma GEMM (TRIA); type: in vivo
Procedure: FIG. 14 is a waterfall plot showing percent change in tumor volumes verses days of treatment in the TRIA GEM model of melanoma. Mice were treated with UNC2025, AZD6244, Carbo/Taxol or received no treatment.
After dose-finding studies in wild-type mice established an MTD, the inhibitor was given at 120 mpk/d in mouse chow.

TRIA = TRIA tumors injected into NSG mice; type: in vivo; settings: linear regression p<0.001
Procedure: FIG. 20A is a graph of tumor volume (mm^3) verses days. This is treatment of the intact GEMM. FIG. 20B is a graph illustrating the results from TRIA injected into NSG mice. The mice were then treated with no drug or UNC2025. […] In FIGS. 20A and 20B, both treated slopes were statistically significant compared to untreated slopes using linear regression p<0.001. FIG. 20C; Pten/Braf genetically engineered mice were treated with no drug or UNC2025. The graph illustrates tumor volumes (mm^3) verses days on treatment.

[10] = test system: murine model of breast cancer (C3TAg); assay: Murine model of breast cancer (C3TAg); type: in vivo; settings: 120 mpk/d in chow
Pharmacokinetics in mice = settings: mouse, in vivo
[11] = test system: PyVmT mammary gland tumor cells; assay: Orthotopic PyVmT mammary gland tumor model in immunocompetent C57Bl/6 mice; type: in vivo
Procedure: FIG. 10A is an immunoblot showing the presence of Mer TK in J774 murine macrophage and absence in PyVmT murine mammary tumor cells. FIGS. 10B and 10C illustrate the results from an immune-competent orthotopic model of Mer-negative breast cancer. […] FIG. 10B is a graph showing tumor volume (mm^3) verses days post-tumor injection.
FIG. 21A is a timeline illustrating a mouse model using PyVmT cells. […] Mice were dosed from day −2 to day 28. At day zero, 1×10^6 PyVmT cells were implanted into the inguinal mammary fatpad of mice. Tumor volumes were measured at days 16, 19, 21, 23, 26 and 28. Day 28 was the end of the study. FIG. 21B is a graph illustrating tumor volume […] verses days post-tumor injection.
See, FIGS. 10A-10C and FIGS. 21A and 21B.

[12] = test system: HMCB and G361 melanoma cell lines; assay: Apoptosis of melanoma cell lines by flow cytometry (YO-PRO-1 iodide/propidium iodide); type: cell-based
Source text: as §1

Mer = target: T1, Mer (Homo sapiens, UniProt Q12866); assay: Mer autophosphorylation in NSCLC cell lines by immunoblot; type: cell-based; settings: numerous cell lines
T1 sequence (Q12866 21-999): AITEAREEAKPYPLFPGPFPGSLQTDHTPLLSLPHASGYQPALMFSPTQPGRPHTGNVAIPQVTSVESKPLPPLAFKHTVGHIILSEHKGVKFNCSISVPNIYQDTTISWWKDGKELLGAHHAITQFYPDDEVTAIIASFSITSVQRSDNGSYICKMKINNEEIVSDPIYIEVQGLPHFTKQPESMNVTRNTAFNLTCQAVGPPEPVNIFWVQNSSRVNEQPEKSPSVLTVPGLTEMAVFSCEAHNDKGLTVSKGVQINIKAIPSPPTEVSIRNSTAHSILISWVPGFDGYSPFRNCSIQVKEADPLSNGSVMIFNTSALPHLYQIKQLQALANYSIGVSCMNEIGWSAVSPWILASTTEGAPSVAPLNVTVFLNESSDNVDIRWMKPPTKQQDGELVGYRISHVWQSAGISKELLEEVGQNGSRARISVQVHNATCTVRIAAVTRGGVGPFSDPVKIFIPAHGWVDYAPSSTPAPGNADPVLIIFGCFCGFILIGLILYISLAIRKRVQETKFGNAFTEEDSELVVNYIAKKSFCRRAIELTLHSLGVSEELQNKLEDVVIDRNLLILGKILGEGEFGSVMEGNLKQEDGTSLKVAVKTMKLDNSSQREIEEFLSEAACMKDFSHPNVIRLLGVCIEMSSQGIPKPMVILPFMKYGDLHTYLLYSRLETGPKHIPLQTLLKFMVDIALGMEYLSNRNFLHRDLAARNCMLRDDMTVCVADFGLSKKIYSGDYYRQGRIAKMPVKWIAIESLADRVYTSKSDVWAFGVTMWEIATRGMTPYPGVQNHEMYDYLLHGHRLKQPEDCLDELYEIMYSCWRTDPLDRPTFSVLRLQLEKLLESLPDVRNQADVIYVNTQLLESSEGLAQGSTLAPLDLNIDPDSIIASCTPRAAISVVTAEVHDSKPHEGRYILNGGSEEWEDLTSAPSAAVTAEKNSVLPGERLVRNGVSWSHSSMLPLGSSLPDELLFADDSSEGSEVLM
Procedure: as §3

[13] = test system: MER-expressing ALL cell lines; assay: Apoptosis and colony formation in methylcellulose of ALL cell lines; type: cell-based
[14] = test system: Colo699 (Mer+, FGFR+) and H226 (Mer+, FGFR+) NSCLC cells; assay: Soft agar colony formation of NSCLC cells, Mer TKI and FGFR TKI; type: cell-based; settings: 14 days
[15] = compared to vehicle treated tumor-bearing mice

CCCCNc1ncc2c(-c3ccc(S(=O)(=O)N4CCOCC4)cc3)nn(C3CCC(O)CC3)c2n1 (stereo not drawn) [UNC1062]
colony formation [1]: reduced colony formation
invasion into collagen matrix (SKMEL119 melanoma cells): reduced invasion
oral bioavailability / pharmacokinetics [2]: orally bioavailable

Cn1cnc2c(F)c(Nc3ccc(Br)cc3Cl)c(C(=O)NOCCO)cc21 [AZD6244, reference compound]
MTD [3]: 37 mg/kg

CCCCNc1ncc2c(-c3ccc(S(=O)(=O)N4CCOCC4)cc3)cn(C3CCC(O)CC3)c2n1 (stereo not drawn) [UNC1666]
apoptotic cells [4]: 90±6%
relative colony counts [5]: 34±15
AKT and STAT6 activation (AKT and STAT6 activation): dose-dependent decrease
Mer and Flt3 kinase phosphorylation and downstream signaling ([6]; leukemic blasts from a patient with AML, 50, 100 and 300 nM): abrogates
colony formation in methylcellulose ([6]; six primary patient samples): near complete inhibition of colony formation
induction of apoptosis ([6]; six primary patient samples): dose-dependent induction of apoptosis
apoptotic cells [7]: 66±10%

CCCCNc1ncc2c(-c3ccc(CN4CCN(C)CC4)cc3)cn([C@H]3CC[C@H](O)CC3)c2n1 [MRX6313]
downstream signaling [8]: abrogates signaling downstream of MER
tumor volume (Colo699 cells): significant decrease in tumor volume
median survival (B-ALL xenograft; days after inoculation with tumor cells, vehicle 27 days, p<0.0001): 70 days
tumor burden (B-ALL xenograft; minimal residual disease model): dose dependent reduction in tumor burden
concentration resulting in an almost complete block in colony formation ([1]; B-RAF wild-type and B-RAF mutant cell lines): ≥ 300 nM
colony formation [1]: reduced colony growth
toxicity in the TRIA model ([9]; 120 mpk/d in chow): mild, well tolerated toxicity
complete responses (CRs) ([9]; TRIA, 8 mice): 3
single agent activity ([9]; TRIA, 120 mpk/d in chow): pronounced single agent activity
percent change in tumor volumes, waterfall plot, ranking ([9]; versus AZD6244, Carbo/Taxol, no treatment): best response
tumor volumes versus control (TRIA): significantly reduced
single agent activity [10]: did not exhibit single agent activity
oral bioavailability / pharmacokinetics (Pharmacokinetics in mice): orally bioavailable; also recorded: favorable pharmacokinetics
RNA-sequence data on immune cells ([11]; 3 mg/kg twice daily by oral gavage): increases pro-inflammatory cytokines in CD11b^+ cells and activates CD8^+ T cell effector function
primary tumor growth reduction compared to vehicle ([11]; after four weeks of daily treatment): two-fold
reduction of serum IL-4 level [11, 15]: 30%
reduction of serum IL-10 level [11, 15]: 20%
apoptosis [12]: induced apoptosis
concentrations that blocked Mer autophosphorylation (Mer): sub-micromolar
apoptosis and colony-formation in methylcellulose [13]: induction of apoptosis and reduced colony-formation
Mer pharmacodynamics marker (platelet aggregation) ([3]; 120 mpk/d in mouse chow): inhibition of second phase platelet aggregation
weight loss ([3]; 120 mpk/d in mouse chow): did not cause weight loss
MTD ([3]; oral, administered in chow, read-out: MTD, predicted dose in mouse chow): 120 mg/kg
colony formation in soft agar [14]: inhibited

COc1cc(CCc2cc(NC(=O)c3ccc(N4CC(C)NC(C)C4)cc3)n[nH]2)cc(OC)c1 (stereo not drawn) [AZD-4547, reference compound]
colony formation in soft agar [14]: inhibited
